Source: PMC10672402 (Marine Drugs, 2023)
pIC50: −log10 of the molar value.

Assays:
[1] = target: T1, acetylcholinesterase (AChE) (Homo sapiens, UniProt P22303); assay: acetylcholinesterase (AChE) inhibition, modified Ellman method; type: biochemical; conditions: concentration of 50 μg/mL; read-out: inhibition rate against AChE
T1 construct: purchased Solarbio, Beijing, China

[2] = target: T2, pancreatic lipase (PL) (Homo sapiens, UniProt P16233); assay: pancreatic lipase (PL) inhibitory assay; type: biochemical
T2 sequence (P16233 17-465): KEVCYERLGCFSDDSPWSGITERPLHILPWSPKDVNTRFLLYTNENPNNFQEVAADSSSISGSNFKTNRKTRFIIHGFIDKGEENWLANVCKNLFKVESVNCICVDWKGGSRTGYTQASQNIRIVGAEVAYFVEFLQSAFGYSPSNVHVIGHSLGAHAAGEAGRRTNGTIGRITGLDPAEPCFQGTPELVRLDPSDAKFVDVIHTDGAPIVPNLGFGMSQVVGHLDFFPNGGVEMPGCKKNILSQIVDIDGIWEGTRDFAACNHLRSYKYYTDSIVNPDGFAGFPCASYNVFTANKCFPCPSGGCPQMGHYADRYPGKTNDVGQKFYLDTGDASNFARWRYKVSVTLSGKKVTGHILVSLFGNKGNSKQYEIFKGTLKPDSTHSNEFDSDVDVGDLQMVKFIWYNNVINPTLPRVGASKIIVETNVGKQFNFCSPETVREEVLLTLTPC

T1 sequence (P22303 32-614, species assumed): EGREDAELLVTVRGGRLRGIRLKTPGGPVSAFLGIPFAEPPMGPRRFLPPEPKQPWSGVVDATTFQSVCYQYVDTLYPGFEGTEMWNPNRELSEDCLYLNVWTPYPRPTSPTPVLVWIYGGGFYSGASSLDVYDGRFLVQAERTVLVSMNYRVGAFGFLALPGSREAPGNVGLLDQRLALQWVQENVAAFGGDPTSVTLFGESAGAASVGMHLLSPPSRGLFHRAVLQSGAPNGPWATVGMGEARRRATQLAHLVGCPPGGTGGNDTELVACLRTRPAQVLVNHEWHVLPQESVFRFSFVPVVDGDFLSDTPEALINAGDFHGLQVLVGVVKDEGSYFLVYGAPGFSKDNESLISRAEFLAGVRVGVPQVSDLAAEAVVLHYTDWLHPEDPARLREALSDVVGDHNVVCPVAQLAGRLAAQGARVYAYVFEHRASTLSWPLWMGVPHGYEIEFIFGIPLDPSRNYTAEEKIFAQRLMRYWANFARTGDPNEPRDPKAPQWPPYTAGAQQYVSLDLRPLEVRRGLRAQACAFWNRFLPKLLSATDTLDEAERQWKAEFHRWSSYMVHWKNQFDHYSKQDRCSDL

Row | SMILES | inhibition at 50 µg/mL [1] [%] | pIC50 [2]
1 | COC(=O)Cc1cccc(O)c1 [Compound 13, methyl-hydroxyphenylaceta] | 20 to 26 | –
2 | COc1cc(/C=C/C(=O)O)ccc1O [Compound 14, trans-ferulic acid] | 20 to 26 | –
3 | CCC(C)C(=O)Cc1oc(=O)c(C)c(O)c1C (centres unmarked) [Compound 10, paecilpyrone A] | 20 to 26 | –
4 | C/C=C/C=C/[C@@H]1Cc2c(CC(=O)O)c(O)cc(O)c2O1 [Compound 3, asperpentenone D] | – | 3.90
5 | CCC(C)C1(O)OC(C)C2(OC)C(=O)C(C)=C(OC)C12 (centres unmarked) [Compound 1, asperpentenone B] | 20 to 26 | –
